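Briefly, cells in 96-well plates were exposed to five compound concentrations for 48 h, and endpoints were estimated by linear interpolation. Abbreviation: GI50, concentration required for 50% inhibition of growth. TGI is the concentration that stops growth completely.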
Legend:
Assay in all cases: inhibition of tumour cell growth, NCI panel, 48 h
786-0 renal = tested on: 786-0 renal
A498 renal = tested on: A498 renal
A549 NSCLC = tested on: A549 NSCLC
ACHN renal = tested on: ACHN renal
BT-549 breast = tested on: BT-549 breast
CAKI-1 renal = tested on: CAKI-1 renal
CCRF-CEM leukemia = tested on: CCRF-CEM leukemia
COLO 205 colon = tested on: COLO 205 colon
DU-145 prostate = tested on: DU-145 prostate
EKVX NSCLC = tested on: EKVX NSCLC
HCC-2998 colon = tested on: HCC-2998 colon
HCT-116 colon = tested on: HCT-116 colon
HCT-15 colon = tested on: HCT-15 colon
HOP-62 NSCLC = tested on: HOP-62 NSCLC
HOP-92 NSCLC = tested on: HOP-92 NSCLC
HS 578T breast = tested on: HS 578T breast
HT29 colon = tested on: HT29 colon
IGROV1 ovarian = tested on: IGROV1 ovarian
K-562 leukemia = tested on: K-562 leukemia
KM12 colon = tested on: KM12 colon
LOX IMVI melanoma = tested on: LOX IMVI melanoma
M14 melanoma = tested on: M14 melanoma
MALME-3M melanoma = tested on: MALME-3M melanoma
MCF7 breast = tested on: MCF7 breast
MDA-MB-231 breast = tested on: MDA-MB-231 breast
MDA-MB-435 = tested on: MDA-MB-435
MOLT-4 leukemia = tested on: MOLT-4 leukemia
NCI-H226 lung = tested on: NCI-H226 lung
NCI-H23 lung = tested on: NCI-H23 lung
NCI-H460 lung = tested on: NCI-H460 lung
NCI-H522 lung = tested on: NCI-H522 lung
NCI/ADR-RES ovarian = tested on: NCI/ADR-RES ovarian
OVCAR-3 ovarian = tested on: OVCAR-3 ovarian
OVCAR-4 ovarian = tested on: OVCAR-4 ovarian
OVCAR-5 ovarian = tested on: OVCAR-5 ovarian
OVCAR-8 ovarian = tested on: OVCAR-8 ovarian
PC-3 prostate = tested on: PC-3 prostate
RPMI-8226 leukemia = tested on: RPMI-8226 leukemia
RXF 393 renal = tested on: RXF 393 renal
SF-268 CNS = tested on: SF-268 CNS
SF-295 CNS = tested on: SF-295 CNS
SF-539 CNS = tested on: SF-539 CNS
SK-MEL-2 melanoma = tested on: SK-MEL-2 melanoma
SK-MEL-28 melanoma = tested on: SK-MEL-28 melanoma
SK-MEL-5 melanoma = tested on: SK-MEL-5 melanoma
SK-OV-3 ovarian = tested on: SK-OV-3 ovarian
SN12C renal = tested on: SN12C renal
SNB-19 CNS = tested on: SNB-19 CNS
SNB-75 CNS = tested on: SNB-75 CNS
SW-620 colon = tested on: SW-620 colon
T-47D breast = tested on: T-47D breast
TK-10 renal = tested on: TK-10 renal
U251 CNS = tested on: U251 CNS
UACC-257 melanoma = tested on: UACC-257 melanoma
UACC-62 melanoma = tested on: UACC-62 melanoma
UO-31 renal = tested on: UO-31 renal

`Cc1c(Cl)c(=O)oc2cc(OC/C=C3\CCC(=O)O3)ccc12` showed a GI50 (786-0 renal) of 12.8 µM, a TGI (786-0 renal) of 29.3 µM and a GI50 (A498 renal) of 21.1 µM. For the same molecule, the TGI (A498 renal) was 75.3 µM, the GI50 (A549 NSCLC) was 58.2 µM and the TGI (A549 NSCLC) was > 100 µM. The GI50 (ACHN renal) was 4.22 µM, the TGI (ACHN renal) was 17.9 µM and the GI50 (BT-549 breast) was 15.7 µM. For the same molecule, the TGI (BT-549 breast) was 32 µM, the GI50 (CAKI-1 renal) was 11.6 µM and the TGI (CAKI-1 renal) was 30.2 µM. The GI50 (CCRF-CEM leukemia) was 12.5 µM, the TGI (CCRF-CEM leukemia) was 61.3 µM and the GI50 (COLO 205 colon) was 12.9 µM. For the same molecule, the TGI (COLO 205 colon) was 30.1 µM, the GI50 (DU-145 prostate) was 14 µM and the TGI (DU-145 prostate) was 29.4 µM. For the same molecule, the GI50 (EKVX NSCLC) was 29.9 µM, the TGI (EKVX NSCLC) was > 100 µM and the GI50 (HCC-2998 colon) was 18 µM. For the same molecule, the TGI (HCC-2998 colon) was 41.2 µM, the GI50 (HCT-116 colon) was 13.9 µM and the TGI (HCT-116 colon) was 28.3 µM. It also gave a GI50 (HCT-15 colon) of 15.3 µM, a TGI (HCT-15 colon) of 30 µM and a GI50 (HOP-62 NSCLC) of 23.6 µM. For the same molecule, the TGI (HOP-62 NSCLC) was 66.1 µM, the GI50 (HOP-92 NSCLC) was 13 µM and the TGI (HOP-92 NSCLC) was 30 µM. For the same molecule, the GI50 (HS 578T breast) was 24.2 µM, the TGI (HS 578T breast) was 77.4 µM and the GI50 (HT29 colon) was 17.2 µM. For the same molecule, the TGI (HT29 colon) was 43.3 µM, the GI50 (IGROV1 ovarian) was 12.9 µM and the TGI (IGROV1 ovarian) was 27.5 µM. For the same molecule, the GI50 (K-562 leukemia) was 28.2 µM, the TGI (K-562 leukemia) was 78.7 µM and the GI50 (KM12 colon) was 26.1 µM. For the same molecule, the TGI (KM12 colon) was 75.3 µM, the GI50 (LOX IMVI melanoma) was 15.6 µM and the TGI (LOX IMVI melanoma) was 29.7 µM. It also gave a GI50 (M14 melanoma) of 13.3 µM, a TGI (M14 melanoma) of 31.7 µM and a GI50 (MALME-3M melanoma) of 12.9 µM. The TGI (MALME-3M melanoma) was 32.2 µM, the GI50 (MCF7 breast) was 13.4 µM and the TGI (MCF7 breast) was 37.8 µM. For the same molecule, the GI50 (MDA-MB-231 breast) was 16.8 µM, the TGI (MDA-MB-231 breast) was 33.2 µM and the GI50 (MDA-MB-435) was 25.3 µM. The TGI (MDA-MB-435) was 96.3 µM, the GI50 (MOLT-4 leukemia) was 16.5 µM and the TGI (MOLT-4 leukemia) was > 100 µM. For the same molecule, the GI50 (NCI-H226 lung) was 34.6 µM, the TGI (NCI-H226 lung) was > 100 µM and the GI50 (NCI-H23 lung) was 17.4 µM. For the same molecule, the TGI (NCI-H23 lung) was 32.7 µM, the GI50 (NCI-H460 lung) was 26.9 µM and the TGI (NCI-H460 lung) was > 100 µM. For the same molecule, the GI50 (NCI-H522 lung) was 11 µM, the TGI (NCI-H522 lung) was 24.2 µM and the GI50 (NCI/ADR-RES ovarian) was 24.1 µM. It also gave a TGI (NCI/ADR-RES ovarian) of 59.4 µM, a GI50 (OVCAR-3 ovarian) of 14.7 µM and a TGI (OVCAR-3 ovarian) of 33.1 µM. It also gave a GI50 (OVCAR-4 ovarian) of 15.2 µM, a TGI (OVCAR-4 ovarian) of 36.1 µM and a GI50 (OVCAR-5 ovarian) of 27.8 µM. The TGI (OVCAR-5 ovarian) was 80 µM, the GI50 (OVCAR-8 ovarian) was 20 µM and the TGI (OVCAR-8 ovarian) was 47.2 µM. It also gave a GI50 (PC-3 prostate) of 14.2 µM, a TGI (PC-3 prostate) of 38.8 µM and a GI50 (RPMI-8226 leukemia) of 7.63 µM. For the same molecule, the TGI (RPMI-8226 leukemia) was 42.6 µM, the GI50 (RXF 393 renal) was 23.5 µM and the TGI (RXF 393 renal) was > 100 µM. It also gave a GI50 (SF-268 CNS) of 18.8 µM, a TGI (SF-268 CNS) of 64.3 µM and a GI50 (SF-295 CNS) of 62.9 µM. The TGI (SF-295 CNS) was > 100 µM, the GI50 (SF-539 CNS) was 17.4 µM and the TGI (SF-539 CNS) was 56.5 µM. For the same molecule, the GI50 (SK-MEL-2 melanoma) was 15.7 µM, the TGI (SK-MEL-2 melanoma) was 40.5 µM and the GI50 (SK-MEL-28 melanoma) was 19.7 µM. It also gave a TGI (SK-MEL-28 melanoma) of 50 µM, a GI50 (SK-MEL-5 melanoma) of 21 µM and a TGI (SK-MEL-5 melanoma) of 52.2 µM. For the same molecule, the GI50 (SK-OV-3 ovarian) was 58 µM, the TGI (SK-OV-3 ovarian) was > 100 µM and the GI50 (SN12C renal) was 16.8 µM. The TGI (SN12C renal) was 41.4 µM, the GI50 (SNB-19 CNS) was 17.7 µM and the TGI (SNB-19 CNS) was 51.7 µM. It also gave a GI50 (SNB-75 CNS) of 17.9 µM, a TGI (SNB-75 CNS) of 37.5 µM and a GI50 (SW-620 colon) of 13.5 µM. The TGI (SW-620 colon) was 35.6 µM, the GI50 (T-47D breast) was 13.6 µM and the TGI (T-47D breast) was 36.2 µM. It also gave a GI50 (TK-10 renal) of 13.8 µM, a TGI (TK-10 renal) of 32.6 µM and a GI50 (U251 CNS) of 16.8 µM. It also gave a TGI (U251 CNS) of 33.3 µM, a GI50 (UACC-257 melanoma) of 27.2 µM and a TGI (UACC-257 melanoma) of 99 µM. For the same molecule, the GI50 (UACC-62 melanoma) was 16.8 µM, the TGI (UACC-62 melanoma) was 33.9 µM and the GI50 (UO-31 renal) was 12.1 µM. The TGI (UO-31 renal) was 25 µM.
